Assay results from ChEMBL document CHEMBL3046468, “Synthesis, characterization and in vitro hydrolysis studies of ester and amide prodrugs of dexibuprofen” (Med Chem Res, 2012).

Assays:
[1] = Prodrug activation in simulated gastric fluid assessed as dexibuprofen regeneration rate at 10 mg by HPLC analysis; details: in vitro
[2] = Half life in PBS at pH 7.4 by spectrophotometric analysis; format: ADME
[3] = Half life in 80% Homo sapiens (human) plasma at pH 7.4 at 10 mg; format: ADME, cell-free; details: 80% human plasma
[4] = Solubility of the compound in chloroform at 5 mg; format: physicochemical
[5] = Solubility of the compound in ethyl acetate at 5 mg; format: physicochemical
[6] = Solubility of the compound in DMF at 5 mg; format: physicochemical
[7] = Solubility of the compound in ethanol at 5 mg; format: physicochemical
[8] = Solubility of the compound in 0.1 N HCl at 5 mg; format: physicochemical; details: buffer
[9] = Solubility of the compound in 0.1 N NaOH at 5 mg; format: physicochemical
[10] = Protein binding to 6% egg albumin at 20 ug/ml; details: read-out: PPB (converted)
[11] = Solubility of the compound in DMF; format: physicochemical
[12] = Solubility of the compound in chloroform; format: physicochemical
[13] = Solubility of the compound in ethanol; format: physicochemical
[14] = Solubility of the compound in ethyl acetate; format: physicochemical
[15] = Solubility of the compound in 0.1 N HCl; format: physicochemical; details: buffer
[16] = Solubility of the compound in 0.1 N NaOH; format: physicochemical

Structure (SMILES) | Drug metabolism [1] | half-life [2] [h] | half-life [3] [h] | solubility [4] | solubility [5] | solubility [6] | solubility [7] | solubility [8] | solubility [9] | fraction unbound at 20 ug/ml [10] | solubility [11] | solubility [12] | solubility [13] | solubility [14] | solubility [15] | solubility [16]
CC(C)Cc1ccc(C(C)C(=O)OC(C)C)cc1 (stereo unspecified) | Not Active | 2.1 | 0.65 | soluble | soluble | soluble | soluble | Insoluble | soluble | 0.35 | – | – | – | – | – | –
CCCCOC(=O)C(C)c1ccc(CC(C)C)cc1 (stereo unspecified) | Not Active | 2.1 | 0.483 | soluble | soluble | soluble | soluble | Insoluble | soluble | 0.65 | – | – | – | – | – | –
CCC(C)OC(=O)C(C)c1ccc(CC(C)C)cc1 (stereo unspecified) | Not Active | 2.1 | 0.65 | soluble | soluble | soluble | soluble | Insoluble | soluble | 0.33 | – | – | – | – | – | –
CC(C)Cc1ccc(C(C)C(=O)OCc2ccccc2)cc1 (stereo unspecified) | Not Active | 2.1 | 0.65 | soluble | soluble | soluble | soluble | Insoluble | soluble | 0.63 | – | – | – | – | – | –
CC(C)Cc1ccc(C(C)C(=O)OCC(O)CO)cc1 (stereo unspecified) | Not Active | 2.1 | 0.483 | soluble | soluble | soluble | soluble | Insoluble | soluble | 0.77 | – | – | – | – | – | –
COC(=O)C(Cc1ccccc1)NC(=O)C(C)c1ccc(CC(C)C)cc1 (stereo unspecified) | Not Active | 2.97 | 0.883 | soluble | soluble | soluble | soluble | Insoluble | soluble | 0.53 | – | – | – | – | – | –

Next, values leading:

Drug metabolism [1] | half-life [2] [h] | half-life [3] [h] | solubility [4] | solubility [5] | solubility [6] | solubility [7] | solubility [8] | solubility [9] | fraction unbound at 20 ug/ml [10] | solubility [11] | solubility [12] | solubility [13] | solubility [14] | solubility [15] | solubility [16] | Structure (SMILES)
Not Active | 2.58 | 0.883 | soluble | soluble | soluble | soluble | Insoluble | soluble | 0.76 | – | – | – | – | – | – | COC(=O)CNC(=O)C(C)c1ccc(CC(C)C)cc1 (stereo unspecified)
Not Active | 2.58 | 0.883 | soluble | soluble | soluble | soluble | Insoluble | soluble | 0.64 | – | – | – | – | – | – | COC(=O)C(C)NC(=O)C(C)c1ccc(CC(C)C)cc1 (stereo unspecified)
Not Active | 3.3 | 0.883 | soluble | soluble | soluble | soluble | Insoluble | soluble | 0.55 | – | – | – | – | – | – | COC(=O)C(NC(=O)C(C)c1ccc(CC(C)C)cc1)C(C)C (stereo unspecified)
Not Active | 3.16 | 0.883 | soluble | soluble | soluble | soluble | Insoluble | soluble | 0.49 | – | – | – | – | – | – | COC(=O)C(CC(C)C)NC(=O)C(C)c1ccc(CC(C)C)cc1 (stereo unspecified)
– | – | – | – | – | – | – | – | – | – | soluble | soluble | soluble | soluble | Insoluble | soluble | CC(C)Cc1ccc([C@H](C)C(=O)O)cc1 [DEXIBUPROFEN]
